Entries after “also recorded” stand apart in the source; their conditions may differ.

Assay [1] relates to COS7 cells transfected with both KOC1 and HLA-A*3303. The experiment in a line: Specific CTL activity against target cells expressing KOC1 and HLA-A*3303. The assay is classed as cell-based, African green monkey. As to conditions: for specific CTL activity of CTL clones against target cells expressing KOC1 and HLA-A*3303: COS7 transfected with both full-length KOC1 and HLA-A*3303; for specific CTL activity of CTL clones against control cells: COS7 transfected with either full-length KOC1 or HLA-A*3303. As to the method:
(§1) Specifically, peptide-pulsed C1R-A33 (1×10^4 cells/well) was prepared as the stimulator cell. The induced CTLs, i.e., CTL lines and CTL clones, were used as the responder cell. The IFN-gamma ELISPOT assay and IFN-gamma ELISA were performed according to the manufacturer's manual.
A cDNA encoding the open-reading frame of a target gene or HLA-A*3303 was amplified by PCR. The PCR-amplified product was cloned into an expression vector. Either or both of the target gene-expressing vector and the HLA-A*3303-expressing vector were transfected into […], which is a cell line negative for the target gene and HLA, using Lipofectamine 2000 (Invitrogen) following the manufacturer's recommended protocol. Two days after transfection, the transfected cells were harvested using versene (Invitrogen), and used as the target cell for CTL activity assay (5×10^4 cells/well).
The CTL lines and CTL clones established against KOC1-A33-9-485 (SEQ ID NO: 64) (a), KOC1-A33-9-286 (SEQ ID NO: 67) (b), and KOC1-A33-10-542 (SEQ ID NO: 77) (c) were investigated for their ability to recognize target cells expressing KOC1 and the HLA-A*3303 molecule. COS7 cells transfected with both full-length KOC1 and the HLA-A*3303 gene (a specific model of target cells expressing KOC1 and the HLA-A*3303 gene) were prepared as the target cell. COS7 cells transfected with either full-length KOC1 or HLA-A*3303 were prepared as the control.

The test system of assay [2] is peptide-pulsed C1R-A33. The experiment in a line: In vitro CTL induction, IFN-gamma ELISPOT assay (HLA-A*3303). The following applies: CTLs induced with peptide-pulsed DCs from HLA-A*3303-positive volunteers; day 21; vs peptide-pulsed C1R-A33, compared with unpulsed control. The format is cell-based, human. As to the method: C1R (C1R-A33) that stably expresses HLA-A*3303 was used as a stimulator cell. A cDNA encoding the open-reading frame of HLA-A*3303 was amplified by PCR and cloned into an expression vector. C1R cells were transfected with the expression vector, and then selected using G418 (Invitrogen) for two weeks. The G418-selected cells were seeded into wells containing G418-added culture medium in a 96-well plate, and further cultured for 30 days. The exogenous HLA-A*3303 expression in C1R cells was verified by flow cytometric analysis.
(§2) Monocyte-derived dendritic cells (DCs) were used as the antigen-presenting cell to induce a cytotoxic T lymphocyte (CTL) response against peptides presented on human leukocyte antigens (HLAs). As described in the other sections, DCs were generated in vitro (Nakahara S et al., Cancer Res 2003, 63(14): 4112-8). Specifically, peripheral-blood mononuclear cells isolated from healthy volunteers (HLA-A*3303-positive) with the Ficoll-Paque plus solution (Pharmacia) were separated by attaching to plastic tissue culture dishes (Becton Dickinson) and concentrated as a monocyte fraction. The monocyte-concentrated population was cultured in the presence of 1000 IU/ml granulocyte macrophage colony-stimulating factor (R&D System) and 1000 IU/ml interleukin(IL)-4 (R&D System) in an AIM-V medium (Invitrogen) containing 2% heat-inactivated autologous serum (AS). After seven days of culturing, the cytokine-induced DCs were pulsed with 20 micro-g/ml each of the synthesized peptides in an AIM-V medium at 37 degrees C. for three hours in the presence of 3 micro-g/ml beta 2-microglobulin. The generated cells appeared to express on their cell surface DC-associated molecules such as CD80, CD83, CD86 and HLA class II (data not shown). Next, these peptide-pulsed DCs were inactivated by X-ray irradiation (20 Gy), and mixed in a 1:20 ratio with autologous CD8^+ T cells obtained by positive selection using the CD8 Positive Isolation Kit (Dynal). These culture products were seeded in a 48-well plate (Corning). Each well was made to contain 1.5×10^4 peptide-pulsed DCs, 3×10^5 CD8^+ T cells and 10 ng/ml IL-7 (R&D System) in 0.5 ml of the AIM-V/2% AS medium. Three days later, these culture products were added with a final concentration of 20 IU/ml IL-2 (CHIRON). On day 7 and day 14, T cells were further stimulated with peptide-pulsed autologous DCs. The DCs were prepared every time by the same method as above. On day 21, after the third peptide stimulation, CTLs were examined against the peptide-pulsed C1R-A33 cell by a human interferon (IFN)-gamma enzyme-linked immunospot (ELISPOT) assay (Tanaka H et al., Br J Cancer 2001, 84(1): 94-9; Umano Y et. al., Br J Cancer 2001, 84(8): 1052-7; Uchida N et al., Clin Cancer Res 2004, 10(24): 8577-86; Suda T et al., Cancer Sci 2006, 97(5): 411-9; Watanabe T et al., Cancer Sci 2005, 96(8): 498-506).
as §1

The subject of assay [3] is peptide-pulsed C1R-A33. The experiment in a line: IFN-gamma ELISA of CTL lines and CTL clones (HLA-A*3303). The assay is classed as cell-based, human. As to conditions: for IFN-gamma production of CTL clones, ELISA: CTL clones by limiting dilution, peptide-pulsed C1R-A33; for IFN-gamma production of CTL lines, ELISA: target cells pulsed with the peptide vs not pulsed, C1R-A33. How it is done:
CTLs were propagated in culture using methods similar to those disclosed by Riddell et al. (Walter E A et al., N Engl J Med 1995, 333(16): 1038-44; Riddell S R et al., Nat Med 1996, 2(2): 216-23). The CTLs were co-cultured in a total of 25 ml AIM-V medium containing 5% AS (AIM-V/5% AS) and 40 ng/ml anti-CD3 antibody with two types of Mitomycin C-treated human B lymphoblastoid cell lines at 5×10^6 cells/flask. One day after beginning of the culturing, 120 IU/ml IL-2 was added to the culture. On days 5, 8 and 11, a fresh AIM-V/5% AS medium containing 30 IU/ml IL-2 was added to the culture (Tanaka H et al., Br J Cancer 2001, 84(1): 94-9; Umano Y et al., Br J Cancer 2001, 84(8): 1052-7; Uchida N et al., Clin Cancer Res 2004, 10(24): 8577-86; Suda T et al., Cancer Sci 2006, 97(5): 411-9; Watanabe T et al., Cancer Sci 2005, 96(8): 498-506).
Dilution of CTLs was carried out to make 0.3, 1 and 3 cells/well in 96 round-bottomed microtiter plates (Nalge Nunc International). The CTLs were co-cultured with two types of Mitomycin C-treated human B lymphoblastoid cell lines at 1×10^4 cells/well in a total of 150 micro-1/well AIM-V/5% AS medium with 30 ng/ml anti-CD3 antibody and 125 IU/ml IL-2. Ten days later, IL-2 was added to the medium at 50 micro-1/well to reach a final concentration of 125 IU/ml. On day 14, the CTL activity was tested, and the CTL clones were propagated using the same method as described above (Uchida N et al., Clin Cancer Res 2004, 10(24): 8577-86; Suda T et al., Cancer Sci 2006, 97(5): 411-9; Watanabe T et al., Cancer Sci 2005, 96(8): 498-506).
as §1
On the technique in general: ELISA stands for enzyme-linked immunosorbent assay.

The subject of assay [4] is peptide-pulsed C1R-A11. The experiment in a line: In vitro CTL induction, IFN-gamma ELISPOT assay (HLA-A*1101). The following applies: CTLs induced with peptide-pulsed DCs from HLA-A*1101-positive volunteers; day 21; vs peptide-pulsed C1R-A11, compared with unpulsed control; listed as KOC1-A11-9-258. The assay is classed as cell-based, human. As to the method: C1R (C1R-A11) that stably expresses HLA-A*1101 was used as a stimulator cell. A cDNA encoding the open-reading frame of HLA-A*1101 was amplified by PCR and cloned into an expression vector. C1R cells were transfected with the expression vector, and then selected using G418 (Invitrogen) for two weeks. The G418-selected cells were seeded into wells containing G418-added culture medium in a 96-well plate, and further cultured for 30 days. The exogenous HLA-A*1101 expression in C1R cells was verified by flow cytometric analysis.
as §2, with “volunteers (HLA-A*1101-positive)” for “volunteers (HLA-A*3303-positive)”, “were inactivated,” for “were inactivated”, “peptide-pulsed C1R-A11” for “peptide-pulsed C1R-A33 cell”, “Y et” for “Y et.”
Specifically, peptide-pulsed C1R-A11 (1×10^4 cells/well) was prepared as the stimulator cell. The induced CTLs, i.e., CTL lines and CTL clones, were used as the responder cell. The IFN-gamma ELISPOT assay and IFN-gamma ELISA were performed according to the manufacturer's manual.

As to “EVKLEAHIR (a peptide derived from KOC1) [SEQ ID NO: 64]”, in assay [1] (listed as KOC1-A33-9-485), the “specific CTL activity of CTL clones against target cells expressing KOC1 and HLA-A*3303” value is recorded as “specific CTL activity; also recorded: potent CTL activities”; the “specific CTL activity of CTL clones against control cells” value is “a significant specific CTL activity was not shown; also recorded: a significant specific CTL activity was not detected”. Moreover, in assay [2], the “peptide-specific CTL activity (IFN-gamma production), ELISPOT” value (“peptide-specific CTL activity” below) is “potent IFN-gamma production”. Besides, the “IFN-gamma production of CTL clones, ELISA” value in assay [3] (listed as KOC1-A33-9-485) is recorded as “Potent IFN-gamma production”. For the same sequence, the “IFN-gamma production of CTL lines, ELISA” value in assay [3] was “potent IFN-gamma production”.

As to “HFYACQVAQR (a peptide derived from KOC1) [SEQ ID NO: 77]”, in assay [1] (listed as KOC1-A33-10-542), the “specific CTL activity of CTL clones against target cells expressing KOC1 and HLA-A*3303” value is “specific CTL activity; also recorded: potent CTL activities”; the “specific CTL activity of CTL clones against control cells” value is “a significant specific CTL activity was not shown; also recorded: a significant specific CTL activity was not detected”. The “peptide-specific CTL activity” value in assay [2] is “potent IFN-gamma production”. Besides, the “IFN-gamma production of CTL clones, ELISA” value in assay [3] (listed as KOC1-A33-10-542) is on record as “Potent IFN-gamma production”. For the same sequence, in assay [3], the “IFN-gamma production of CTL lines, ELISA” value is “potent IFN-gamma production”.

“KSILEIMHK (a peptide derived from KOC1) [SEQ ID NO: 1]”: in assay [4], the “peptide-specific CTL activity” value is recorded as “no specific IFN-gamma production; also recorded: specific IFN-gamma production was not observed”.

In the case of “NFVGRLIGK (a peptide derived from KOC1) [SEQ ID NO: 67]”, in assay [1] (listed as KOC1-A33-9-286), the “specific CTL activity of CTL clones against target cells expressing KOC1 and HLA-A*3303” value is on record as “specific CTL activity; also recorded: potent CTL activities”; the “specific CTL activity of CTL clones against control cells” value is recorded as “a significant specific CTL activity was not shown; also recorded: a significant specific CTL activity was not detected”. In assay [2], the “peptide-specific CTL activity” value is reported as “potent IFN-gamma production”. Besides, the “IFN-gamma production of CTL clones, ELISA” value in assay [3] (listed as KOC1-A33-9-286) was “Potent IFN-gamma production”. The “IFN-gamma production of CTL lines, ELISA” value in assay [3] was “potent IFN-gamma production”.

The values are drawn from patent publication US10576102B2, “KOC1-derived peptide and vaccine including same” (ONCOTHERAPY SCIENCE, INC., priority 2014, dated 2020).
